Tests used:
[1] = tested on: cotton aphid (Aphis gossypii); test: Cotton aphid test in the same manner, more definitive percent mortality at selected rates and exposure times (Table 3); type: in vivo; conditions: for Percent Mortality of Cotton Aphid on Cotton Plants: 72 hours exposure
Protocol: (§1) The compounds of formula I useful in the present invention were tested for insecticidal activity by observing mortality in a population of cotton aphid (Aphis gossypii) on treated cotton plants caused by a test compound, when compared to like populations of cotton aphid on untreated plants. These tests were conducted in the following manner:
For each rate of application of test compound, two seven-to-ten days old cotton seedlings (Gossypium hirsutium) grown in 7.6 cm diameter pots were selected for the test. Each test plant was infested with about 120 adult cotton aphids by placing onto each test plant cuttings of leaves from cotton plants grown in a cotton aphid colony. Once infested, the test plants were maintained for up to about 12 hours to allow complete translocation of the aphids onto the test plant. A solution comprising 1000 part per million (ppm) of each test compound was prepared by dissolving 10 milligrams of the test compound in 1 mL of acetone. Each solution was then diluted with 9 mL of a solution of 0.03 mL of polyoxyethylene(10) isooctylphenyl ether in 100 mL of water. About 2.5 mL of solution of each test compound was needed to spray each replicate of test plant (5 mL total for each test compound). If needed, the solution of 1000 ppm of test compound was serially diluted with a solution of 10% acetone and 300 ppm of polyoxyethylene(10) isooctylphenyl ether in water to provide solutions of each test compound for lower rates of application, for example, 300 ppm, 100 ppm, 30 ppm, or 10 ppm. Each replicate of test plant was sprayed with the solutions of test compound until run-off on both the upper and lower surfaces of the leaves. All the test plants were sprayed using a DeVilbus Atomizer Model 152 (Sunrise Medical, Carlsbad, Calif.) at a pressure of about 0.63-0.74 kilogram per square centimeter from a distance of about 30.5 centimeters from the test plants. For comparison purposes, a solution of a standard, such as amitraz or demethylchlordimeform (DCDM), prepared in a manner analogous to that set forth above, as well as a solution of 10% acetone and 300 ppm of polyoxyethylene(10) isooctylphenyl ether in water containing no test compound were also sprayed onto test plants. Upon completion of spraying the solutions of test compound, the solution of standard, and the solution containing no test compound, the plants were allowed to dry. […] After this time, each plant was assessed for percent mortality caused by the test compound when compared to the population of aphids that was infested onto the test plants prior to treatment with test compound. […] If there was 75% mortality or greater of the cotton aphid, a test compound was designated as being more insecticidally active (A).
In a test conducted in the same manner as set forth above, certain compounds of formula I were tested to determine a more definitive percent mortality of cotton aphid.

[2] = tested on: cotton aphid (Aphis gossypii); test: Cotton aphid mortality on sprayed cotton plants, assessed after 24 hours (Table 2); type: in vivo; conditions: read-out: Mortality of Cotton Aphid On Cotton Plants: More Than 75% Mortality (A)
Protocol: as §1
For each rate of application of test compound, two seven-to-ten days old cotton seedlings (Gossypium hirsutium) grown in 7.6 cm diameter pots were selected for the test. Each test plant was infested with about 120 adult cotton aphids by placing onto each test plant cuttings of leaves from cotton plants grown in a cotton aphid colony. Once infested, the test plants were maintained for up to about 12 hours to allow complete translocation of the aphids onto the test plant. A solution comprising 1000 part per million (ppm) of each test compound was prepared by dissolving 10 milligrams of the test compound in 1 mL of acetone. Each solution was then diluted with 9 mL of a solution of 0.03 mL of polyoxyethylene(10) isooctylphenyl ether in 100 mL of water. […] After this time, each plant was assessed for percent mortality caused by the test compound when compared to the population of aphids that was infested onto the test plants prior to treatment with test compound. […]

[3] = tested on: tobacco hornworm; conditions: in vivo; cited from earlier work

Structure (SMILES)	Percent Mortality of Cotton Aphid on Cotton Plants ([1]; 500 ppm) [%]	anti-feeding activity against tobacco hornworm [3]	other results
CN1CCC(=C2c3ccccc3Oc3ccccc32)CC1 [Compound 8, 9-(1-methyl-4-piperidylidene)xanthene]			mortality at 100 ppm ([1]; Aphis gossypii, 96 h, read-out: Percent Mortality of Cotton Aphid on Cotton Plants): 88%; mortality at 100 ppm [2]: > 75%
COc1ccc2c(c1)N(CCCN(C)C)c1ccccc1S2 [Compound 205]	40		
CN1CCN(CCCN2c3ccccc3Sc3ccc(C(F)(F)F)cc32)CC1.Cl.Cl [Compound 207]			Percent Mortality of Cotton Aphid on Cotton Plants ([1]; 1000 ppm): 25%
Cl.Cl.OCCN1CCN(CCCN2c3ccccc3Sc3ccc(C(F)(F)F)cc32)CC1 [Compound 208]	43		
CNCCCN1c2ccccc2CCc2ccccc21 [Desipramine, desipramine]		anti-feeding activity	
CN(C)CCC=C1c2ccccc2CCc2ccccc21 [amitriptyline]		anti-feeding activity	

— patent publication US20060111342A1, “Insecticidal tricyclic derivatives” (priority 2002, published 2006)
